The METLIN SMRT retention time set (Domingo-Almenara et al. 2019)

Assay: gradient 5% acetonitrile 3 min, to 50% in 2 min, to 85% in 15 min, held 3 min, 100 µL/min
Conditions: column: Zorbax Extend-C18 2.1 x 50 mm; eluents: water / acetonitrile, 0.1% formic acid
Method in brief: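 Values are retention times taken from adduct peaks that software picked and an analyst inspected. The pure standards were run as mixtures of ~100 molecules on HPLC linked to a quadrupole time-of-flight mass spectrometer, in positive and negative ionization mode. A Zorbax Extend-C18 column (2.1 × 50 mm, 1.8 μm) was used at 100 μL/min with water and acetonitrile, each including 0.1% formic acid.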

| RP-LC retention time [s] | Structure (SMILES) |
| --- | --- |
| 975 | Cc1ccc(N2C(=O)C3N=NN(Cc4nc(-c5ccccc5)no4)C3C2=O)cc1 (configuration not stated) |
| 890 | COc1ccc(-c2nc3cnccn3c2Nc2cccc(Cl)c2C)cc1OC |
| 944 | Cn1cc(C2=CCN(S(=O)(=O)c3ccccc3F)CC2)c2cccnc21 |
| 573 | COc1ccc(S(=O)(=O)N2CCN(CCO)CC2)c2ccccc12 |
| 619 | CCn1cc(S(=O)(=O)N2CCCC2c2noc(CO)n2)cn1 (configuration not stated) |
| 1060 | COc1ccc(CN2C=C(C(=O)OCc3nc(-c4ccccc4F)no3)C(C)=NS2(=O)=O)cc1 |
| 725 | COc1ccc(-c2nnc(-c3ccccc3)o2)cc1S(=O)(=O)Nc1cccnc1 |
| 639 | COc1cccc(C(=O)N2CCC(c3cc(N)on3)CC2)c1OC |
| 788 | O=C(C1CCCN(c2ccc(-c3ccccc3)nn2)C1)N1CCN(c2ccccc2F)CC1 (configuration not stated) |
| 944 | O=C(c1cn(-c2cc(N3CCCCC3)ncn2)cn1)N1CCN(c2ccccc2)CC1 |
| 673 | O=S(=O)(NCCc1c[nH]c2ncccc12)c1ccc(Br)s1 |
| 663 | COc1ccc(-c2cc(N3CCN(C(=O)Nc4ccc(OC)cc4OC)CC3)ncn2)cc1 |
| 600 | Cn1cnc(S(=O)(=O)N2CC(N(Cc3ccccc3)C3CCOCC3)C2)c1 |
| 683 | CC(C)Cn1c(CCNC(=O)c2ccccc2)nc2cccnc21 |
| 1090 | CCOc1ccccc1-c1nc(-c2cn(-c3ccc(F)cc3)nn2)no1 |
| 705 | Cc1ccc(Cl)cc1N1CCN(C(=O)c2c(C)oc3c2C2=NCCN2C=N3)CC1 |
| 700 | COCCNc1ncc(C(=O)O)c(-c2cccc(C)c2)n1 |
| 1050 | O=c1ccc(-c2ccc3c(c2)OCO3)nn1CCc1nc(-c2ccc(Cl)c(F)c2)no1 |
| 1020 | COc1ccc(-n2c(=O)n(C)c(=O)c3cc(C(=O)Nc4cccc(OC)c4)cnc32)cc1 |
| 587 | Cc1nn(CCCC(=O)N2CCN(c3ccccn3)CC2)c(=O)c2cc3sccc3n12 |
| 1240 | N#Cc1ccc(-c2csc(NC(=O)c3sc4ccccc4c3Cl)n2)cc1 |
| 822 | COc1ccc(S(=O)(=O)N2CCCN(c3ccc(=O)n(-c4ccccc4)n3)CC2)cc1 |

| RP-LC retention time [s] | Structure (SMILES) |
| --- | --- |
| 818 | Cc1ccc(NC(=O)C2CCN(C(=O)C3Sc4ccccc4NC3=O)CC2)cc1C (configuration not stated) |
| 974 | Cc1cc(=O)n(CC(=O)Nc2ccc3c(c2)OCO3)c(-c2ccc(F)cc2)n1 |
| 916 | Cc1nn(C(=O)c2cccnc2)c(C)c1Sc1ccccc1[N+](=O)[O-] |
| 936 | CN1C(=O)c2cc(S(=O)(=O)Nc3cc(F)cc(F)c3)ccc2Oc2cccnc21 |
| 881 | O=C(CC1CCCC1)NC(c1ccccc1)c1nnc(N2CCCCC2)o1 (configuration not stated) |
| 954 | COc1cc(OC)c(NC(=O)CN2C(=O)C(C)(C)c3ccccc32)cc1Cl |
| 680 | O=C(CCNc1c(-c2cccc(F)c2)nc2cnccn12)NCc1ccco1 |
| 686 | Cc1cc(C)nc(NS(=O)(=O)c2ccc(NC(=O)NC3CCCCC3)cc2)n1 |
| 963 | CC1(C(=O)NCc2ccc(F)cc2)CCCN(S(=O)(=O)c2ccc(F)cc2F)C1 (configuration not stated) |
| 706 | Cc1cc(NC(=O)c2cccc(N3C(=O)CCC3=O)c2)n(-c2nc3ccc(F)cc3s2)n1 |
| 1150 | CCOc1ccc(-c2cc3c(=O)n(Cc4nc(-c5ccccc5Cl)no4)ncn3n2)cc1 |
| 784 | CC(C)CN1C(=O)c2cccn2CC1CNC(=O)CC1CCCC1 (configuration not stated) |
| 624 | CS(=O)(=O)c1ccc(NCCCC(=O)O)c([N+](=O)[O-])c1 |
| 618 | CC(C)(C)NC(=O)N1CCCN(C2CCN(Cc3ccccc3)C2=O)CC1 (configuration not stated) |
| 688 | Cc1ccc(S(=O)(=O)NC2CCN(C(=O)c3ccnn3C)CC2)cc1 |
| 917 | O=C(CSc1nnc(COc2ccccc2Cl)o1)Nc1nc(-c2ccccc2)cs1 |
| 661 | COc1ccc2nc(N3CC(C(=O)N4CCc5cc(OC)c(OC)cc5C4)C3)sc2c1 |
| 673 | Cc1ccc(N2CC(C(=O)NCC(C)(O)C3CC3)CC2=O)cc1C (configuration not stated) |
| 828 | Cc1ccc(/C=C/c2onc(C)c2S(=O)(=O)N2CCC(C(=O)NCC3CCCO3)CC2)cc1 (configuration not stated) |
| 759 | Cc1c(C(=O)O)nnn1-c1ccc2c(c1)CCC2 |
| 1290 | CCOc1ccccc1NC(=O)Cc1c(C)nn(-c2nc(-c3ccc(F)cc3)cs2)c1C |
| 1090 | Cc1ccc(S(=O)(=O)N2CCC(C(=O)N3CCCC3c3nc(-c4ccccc4C)no3)CC2)cc1 (configuration not stated) |

| RP-LC retention time [s] | Structure (SMILES) |
| --- | --- |
| 864 | CCN(Cc1cn(C)nc1C)C(=O)c1cc2c(=O)n(CC(C)C)c3ccccc3n2n1 |
| 880 | CC(CCc1ccccc1)NC(=O)Cn1nc2c(Oc3ccccc3)nccn2c1=O (configuration not stated) |
| 846 | COc1cccc(CNC(=O)CN2C(=O)CSc3cccn3-c3ccccc32)c1 |
| 587 | CN1CCN(C(=O)c2ccc(-c3nnc4ccc(NC(=O)C5CCC5)cn34)cc2)CC1 |
| 825 | Cc1cc(=O)n(CC(=O)N2CCc3ccccc32)c(N2CCc3ccccc3C2)n1 |
| 1250 | Cc1ccc(-c2nc(-c3cccc(-c4ccnn4C)c3)no2)cc1F |
| 1210 | CSc1ccc(-c2noc(Cn3c(=O)n(CC(C)C)c(=O)c4ccccc43)n2)cc1 |
| 1070 | Cc1ccc(-n2ccnc(NC(=O)Nc3cccc(F)c3)c2=O)cc1C |
| 672 | CN(CC1CCOC1)C(=O)c1cccc(Cl)c1 (configuration not stated) |
| 584 | O=C(NCc1ccc2c(c1)OCO2)C1CCCN(C(=O)c2cc(-c3cccnc3)n[nH]2)C1 (configuration not stated) |
| 1140 | CCc1nc(-c2csc(S(=O)(=O)N3CCCC(C(=O)N(C)c4ccc(C)c(C)c4)C3)c2)no1 (configuration not stated) |
| 652 | CC(=O)NCc1csc(C2CCN(C(=O)c3cc(F)ccc3F)CC2)n1 |
| 939 | COc1ccc(-c2csc3c(=O)n(CC(=O)OC(C)C)cnc23)cc1 |
| 581 | CC(=O)Nc1nc(N2CCC(C(=O)NCc3cccnc3)CC2)sc1C(=O)N1CCCC1 |
| 603 | C=CCc1ccc(OCC(O)CN2C(C)CCCC2C)c(OC)c1 (configuration not stated) |
| 625 | Cc1cccc2nnc(N3CCCC(C(=O)Nc4ccc(N5CCOCC5)cc4)C3)n12 (configuration not stated) |
| 797 | NC(=O)CSc1nc(-c2ccccc2)c(NC(=O)c2cc3ccccc3o2)s1 |
| 630 | CCCN1CCN(C(=O)C2Cc3cc(S(=O)(=O)N4CCCCC4)ccc3N2C(C)=O)CC1 (configuration not stated) |
| 820 | Cc1nn(CC(=O)N(C)Cc2ccco2)c(=O)c2c(C)n(-c3ccccc3)nc12 |
| 849 | COc1ccc(C(=O)N2CCN(c3nc(-c4ccccc4)no3)CC2)cc1OC |
| 860 | CNC(=O)NC1CCN(c2nc3cccnc3n(Cc3ccc(C)cc3)c2=O)CC1 |
| 709 | CC(C)CC(=O)Nc1ccc(-n2cnc(C(=O)N3CCSCC3)c2)nc1 |

| RP-LC retention time [s] | Structure (SMILES) |
| --- | --- |
| 980 | CCOC(=O)Cc1c(C)nc2cc(-c3ccc(OC)cc3)nn2c1C |
| 692 | CNC(=O)c1cccc(Nc2c(-c3ccc(Cl)cc3)nc3cnccn23)c1 |
| 1230 | Cc1c(C(=O)N2CCCC(C)C2)cnn1-c1ccc(-c2nc(C(C)(C)C)no2)cn1 (configuration not stated) |
| 1130 | CCCCN1C(=O)c2cc(S(=O)(=O)Nc3ccccc3C)ccc2Oc2cccnc21 |
| 1060 | COC(=O)c1cccc(NC(=O)c2sc(-c3cn(C(C)C)c4ncccc34)nc2C)c1 |
| 587 | CC1CCCCN1CCCNC(=O)C1CCN(c2nc3cccnc3s2)CC1 (configuration not stated) |
| 681 | COc1cccc(N2CCN(C(=O)c3cc(NC(=O)C(C)C)cc4nc(C)ccc34)CC2)c1 |
| 652 | CCOc1ccc(NC(=O)CSc2ccc(N3CCCC(C(=O)NC4CC4)C3)nn2)cc1 (configuration not stated) |
| 758 | Cc1ccc(C)c(NC(=O)C2CC(=O)N(c3n[nH]c4cccc(F)c34)C2)c1 (configuration not stated) |
| 574 | CCn1c(N2CCC(C(=O)NCCCN3CCOCC3)CC2)cc(=O)n(C)c1=O |
| 888 | COc1ccccc1CNC(=O)CSc1cc(N2CCN(c3ccccc3OC)CC2)ncn1 |
| 824 | Cc1ccc(NC(=O)C2CCCN(c3ncnc4c3nc3n4CCCCC3)C2)c(C)c1 (configuration not stated) |
| 1140 | Cc1ccc(-c2nc(-c3ccc4nnc(C)n4c3)no2)c(C)c1 |
| 994 | Cc1ccc(S(=O)(=O)[C@H]2CS(=O)(=O)C[C@@H]2N2CCN(c3ccccc3F)CC2)cc1 |
| 730 | Cc1sc2ncnc(SCC(=O)Nc3ccc(S(N)(=O)=O)cc3)c2c1C |
| 554 | Cc1cc(C(=O)N2CCN(CCNC(=O)c3ccsc3)CC2)c(C)o1 |
| 1260 | CCC(C)(C)c1ccc(Oc2cccc(C(=O)O)c2)cc1 |
| 689 | O=C(NCCN1CCCC1)c1nc(Nc2ccc(F)cc2)c2ccccc2n1 |
| 789 | CCCn1nc(CNC(=O)c2ccoc2)c2ccccc21 |
| 1030 | Cc1ccc(CNC(=O)C2(C)CCN(S(=O)(=O)c3cc(C)cc(C)c3)CC2)cc1 |
| 1310 | Cc1ccc(NS(=O)(=O)c2cc(-c3nc(C(C)(C)C)cs3)cs2)c(C)c1 |
